Results published in ChEMBL document CHEMBL3627657, “Design, synthesis, biological evaluation and docking study of 4-isochromanone hybrids bearing N-benzyl pyridinium moiety as dual binding site acetylcholinesterase inhibitors” (Bioorg Med Chem Lett, 2015).
The source made the active and inactive calls. The calls are words filed in the database; no cut-off is given here.

What was measured:
[1] = target: Acetylcholinesterase (Electrophorus electricus, UniProt O42275); assay: Inhibition of electric eel AChE using […] as substrate by Ellman's method
Acetylcholinesterase, sequence (O42275 whole entry): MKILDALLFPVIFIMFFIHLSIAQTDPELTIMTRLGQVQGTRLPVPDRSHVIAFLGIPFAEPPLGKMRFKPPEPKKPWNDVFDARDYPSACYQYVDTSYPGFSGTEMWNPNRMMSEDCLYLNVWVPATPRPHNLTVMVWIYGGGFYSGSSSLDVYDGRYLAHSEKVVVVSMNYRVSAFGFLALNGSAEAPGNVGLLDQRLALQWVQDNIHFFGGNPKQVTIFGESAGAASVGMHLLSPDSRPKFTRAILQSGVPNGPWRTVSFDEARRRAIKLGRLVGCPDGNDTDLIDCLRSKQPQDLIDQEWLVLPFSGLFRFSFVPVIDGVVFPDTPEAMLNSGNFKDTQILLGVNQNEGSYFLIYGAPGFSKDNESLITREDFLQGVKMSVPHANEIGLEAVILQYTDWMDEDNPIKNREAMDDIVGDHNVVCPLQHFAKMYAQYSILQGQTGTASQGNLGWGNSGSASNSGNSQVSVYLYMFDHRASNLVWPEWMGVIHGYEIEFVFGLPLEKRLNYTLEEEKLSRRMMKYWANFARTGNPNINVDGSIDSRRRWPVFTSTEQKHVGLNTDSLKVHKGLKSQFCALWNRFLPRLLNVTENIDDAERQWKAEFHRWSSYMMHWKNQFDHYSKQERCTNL

[2] = Selectivity index, ratio of IC50 for equine serum BuChE to IC50 for electric eel AChE
[3] = target: Cholinesterase (Equus caballus, UniProt P81908)
Cholinesterase, sequence (P81908 whole entry): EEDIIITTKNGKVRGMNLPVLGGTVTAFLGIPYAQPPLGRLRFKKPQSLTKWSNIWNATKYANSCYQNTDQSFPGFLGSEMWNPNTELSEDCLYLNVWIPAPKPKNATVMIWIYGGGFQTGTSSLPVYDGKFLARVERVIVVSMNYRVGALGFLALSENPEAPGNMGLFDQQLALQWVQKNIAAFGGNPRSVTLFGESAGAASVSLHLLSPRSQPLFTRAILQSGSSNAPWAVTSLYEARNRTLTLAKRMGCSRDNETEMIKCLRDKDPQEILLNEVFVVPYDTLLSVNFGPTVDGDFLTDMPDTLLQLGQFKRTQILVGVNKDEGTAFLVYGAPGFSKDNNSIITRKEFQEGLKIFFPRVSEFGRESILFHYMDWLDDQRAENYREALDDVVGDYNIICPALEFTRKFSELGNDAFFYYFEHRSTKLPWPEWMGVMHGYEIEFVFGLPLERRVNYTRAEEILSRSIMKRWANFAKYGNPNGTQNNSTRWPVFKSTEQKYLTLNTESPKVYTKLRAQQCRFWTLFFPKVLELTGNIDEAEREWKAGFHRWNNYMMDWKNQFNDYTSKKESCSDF
Description: Inhibition of equine serum BuChE using thiocholine iodide as substrate by Ellman's method

[4] = target: Acetylcholinesterase (Electrophorus electricus) (UniProt O42275); assay: Mixed type inhibition of electric eel AChE using […] as substrate by Lineweaver-Burk plot analysis
Acetylcholinesterase (Electrophorus electricus), sequence (O42275 24-633 limits assumed): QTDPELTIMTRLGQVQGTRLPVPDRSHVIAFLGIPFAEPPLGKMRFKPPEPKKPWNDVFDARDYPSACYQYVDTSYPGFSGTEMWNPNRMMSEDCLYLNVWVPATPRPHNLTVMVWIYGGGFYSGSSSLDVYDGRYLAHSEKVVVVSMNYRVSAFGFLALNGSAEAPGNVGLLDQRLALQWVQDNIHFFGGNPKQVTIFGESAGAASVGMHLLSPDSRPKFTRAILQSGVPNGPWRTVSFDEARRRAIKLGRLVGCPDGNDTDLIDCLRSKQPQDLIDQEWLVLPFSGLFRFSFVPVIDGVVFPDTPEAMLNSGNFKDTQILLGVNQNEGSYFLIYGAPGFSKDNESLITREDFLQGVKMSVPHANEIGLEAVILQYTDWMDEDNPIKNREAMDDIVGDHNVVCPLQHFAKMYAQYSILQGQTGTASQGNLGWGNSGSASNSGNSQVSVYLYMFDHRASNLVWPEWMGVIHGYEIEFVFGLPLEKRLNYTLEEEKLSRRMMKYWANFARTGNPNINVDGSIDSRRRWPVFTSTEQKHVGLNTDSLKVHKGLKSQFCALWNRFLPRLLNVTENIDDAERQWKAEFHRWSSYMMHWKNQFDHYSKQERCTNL

[5] = Dissociation constant, pKa of the compound by UV-metric/potentiometric method; format: physicochemical
[6] = Lipophilicity, log P of the compound by UV-metric/potentiometric method; format: physicochemical; settings: octanol/water
[7] = Lipophilicity, log D of the compound at pH 7.4 by UV-metric/potentiometric method; format: physicochemical; settings: buffer

Row | SMILES | IC50 [1] | Ratio IC50 [2] | IC50 [3] | inhibition [4] | pKa [5] | logP [6] | logD [7]
1 | COc1ccc2c(c1OC)CO/C(=C\c1cc[n+](Cc3ccc(Cl)cc3)cc1)C2=O | 0.646 µM | 5.5 | 3.56 µM | – | – | – | –
2 | COc1ccccc1C[n+]1ccc(/C=C2\OCc3c(ccc(OC)c3OC)C2=O)cc1 | 0.64 µM | 13 | 8.79 µM | – | – | – | –
3 | COc1cccc(C[n+]2ccc(/C=C3\OCc4c(ccc(OC)c4OC)C3=O)cc2)c1 | 0.441 µM | 7 | 3.06 µM | – | – | – | –
4 | COc1ccc2c(c1OC)CO/C(=C\c1cc[n+](Cc3cccc(F)c3)cc1)C2=O | 0.0263 µM | 359 | 9.44 µM | – | – | – | –
5 | COc1ccc2c(c1OC)CO/C(=C\c1cc[n+](Cc3ccc(F)cc3)cc1)C2=O | 0.00893 µM | 232 | 2.07 µM | Active | 8.79 | 2.84 | 1.45
6 | COc1ccc2c(c1OC)CO/C(=C\c1cc[n+](Cc3cccc(Cl)c3)cc1)C2=O | 0.0697 µM | 142 | 9.92 µM | – | – | – | –
7 | COc1ccc2c(c1OC)CO/C(=C\c1cc[n+](Cc3ccc([N+](=O)[O-])cc3)cc1)C2=O | 3.55 µM | – | > 100 µM | – | – | – | –
8 | COc1ccc2c(c1OC)CO/C(=C\c1cc[n+](Cc3ccccc3F)cc1)C2=O | 0.0211 µM | 209 | 4.41 µM | – | – | – | –
9 | COc1ccc2c(c1OC)CO/C(=C\c1cc[n+](Cc3ccccc3Cl)cc1)C2=O | 0.0159 µM | 229 | 3.64 µM | – | 8.62 | 3.2 | 1.96
10 | COc1ccc2c(c1OC)CO/C(=C\c1cc[n+](Cc3ccccc3)cc1)C2=O | 0.0448 µM | 153 | 6.87 µM | – | 8.68 | 2.53 | 1.28
11 | COc1ccc(C[n+]2ccc(/C=C3\OCc4c(ccc(OC)c4OC)C3=O)cc2)cc1 | 1.19 µM | 3.6 | 4.33 µM | – | – | – | –
12 | COc1ccc2c(c1OC)CO/C(=C\c1cc[n+](Cc3cccc([N+](=O)[O-])c3)cc1)C2=O | 0.456 µM | 64 | 29.2 µM | – | – | – | –
13 | COc1ccc2c(c1OC)CO/C(=C\c1cc[n+](Cc3ccccc3[N+](=O)[O-])cc1)C2=O | 0.503 µM | 41.6 | 20.9 µM | – | – | – | –
